Entries after “also recorded” stand apart in the source; their conditions may differ.
Experiments:
LC3 = assay: Autophagy activity in cultured cells by immunoblotting using LC3 as a marker; format: cell-based, human; details: HeLa
Description: In order to evaluate the autophagy activity efficacy by the compounds (Examples 1-19), HeLa cell line, which is a cell line derived from a cervical cancer patient, was cultured using a DMEM medium containing 10% FBS and 1% streptomycin/penicillin in an incubator with 5% carbon dioxide. As representative compounds among the present compounds, YOK-1107, YOK-4404 and YOK-1104 were selected. In order to measure autophagy activity according to the treatment with these selected representative compounds, the respective cells were dispensed into 6 well plates. Additional cultures were performed […] so that the cells were completely attached to the surface of the plate. To find the concentration at which the respective compounds could increase the phenomenon of autophagy, the test compounds were diluted at 1, 2, 5, 10 and 20 μM and treated. After treatment with the respective compounds, the cells were cultured again in a cell incubator for 24 hours, and then the cells were collected. To extract proteins from the collected cells, 100 ul of lysis buffer (20 mM Tris (pH 7.4), 150 mM NaCl, 1% Triton X-100, 2 mM NaF, 2 mM EDTA, 2 mM beta-glycerophosphate, 5 mM sodium orthovanadate, 1 mM PMSF, leupeptin, aprotinin) was injected into each sample, and cells were lysed. Based on the measured total protein concentration, a sample buffer was added to each sample and allowed to react at 100° C. for 5 minutes. 5 ul was taken from the samples after the reaction, and dispensed into each well of acrylamide gel, and then immunoblotting was performed.
In order to investigate the autophagy activity efficacy by the compounds (Examples 1-19), immunoblotting was performed in the same manner as in Experimental Example 2 using LC3 as a marker. As for the difference, in order to evaluate the treatment time required for activation and the activity retention time, as the representative compounds selected among the present compounds, 5 μM of YOK-1107, YOK-1204, YOK-1304, YOK-2204, YOK-3304, […] treated for 1, 3, 6, 12, 24, 48 hours. On the other hand, as the representative compounds selected among the compounds of the present invention, […] YOK-1107, YOK-1109, YOK-2207, YOK-2209, YT-4-1, YT-4-2, YT-6-1, YT-6-2, YT-6-8, YT-6-7, YT-9-1, YT-9-2 were treated for 24 hours.
In order to investigate the autophagy activity efficacy of control compounds, immunoblotting was performed in the same manner as in Experimental Example 2 by using LC3 as a marker. As the control compounds, compounds having the following structure were used.

p62 and LC3 = assay: Autophagy activity in cultured cells by immunofluorescence staining and confocal microscopy (p62 and LC3 puncta); format: cell-based, human; details: for p62 activation/oligomerization, delivery to autophagosome and autophagy activity (p62 and LC3 puncta, co-existence): HeLa, 5 uM, 24 hours, FIGS. 6a and 6b; for p62 activation/oligomerization, delivery to autophagosome and autophagy activity (p62 and LC3 puncta), control compounds: different concentrations, FIG. 7
Description: In order to confirm the p62 protein activity and the activity level of autophagy phenomenon by the compounds (Examples 1-19), immunofluorescence staining was performed using p62 and LC3 as markers. In order to confirm the p62 activity and the activity level of autophagy phenomenon by new p62 ligands and isomers thereof in cultured cells, HeLa cell line, which is a cell line derived from cervical cancer patient, was treated with the novel p62 ligand compounds (YOK-1106, YOK-1204, YOK-1504, YOK-2204, YOK-3304, YOK-4404, YOK-1107, YOK-1109, YOK-2207, YOK-2209, YT-4-1, YT-4-2, YT-6-1, YT-9-1 and YT-9-2) and cultured. Thereafter, as markers of the autophagy phenomenon, the expression level and location of LC3 puncta and the local co-existence with p62 puncta were observed.
For immunofluorescence staining, a cover glass was placed on a 24-well plate, cells were dispensed, cultured for 24 hours, and then treated with 5 uM of the novel p62 ligands according to the present invention. For the action of the compounds, additional cultures were performed for 24 hours, and then the medium was removed. Cells were fixed using formaldehyde at room temperature. In order to prevent non-specific staining, the cells were allowed to react with a blocking solution at room temperature for 1 hour, and then treated with LC3 antibody diluted at a certain ratio using the blocking solution, and allowed to reacted at room temperature for 1 hour. The antibody-treated cells were washed three times with PBS, and goat-derived secondary antibody was diluted at a certain ratio using the blocking solution, and then allowed to react at room temperature for 30 minutes. The cells were washed again with PBS three times, and for intracellular nuclear staining, the expression level, intracellular puncta formation and intracellular coexistence level of p62 and LC3 were observed through a confocal microscopy after DAPI staining.
In order to confirm p62 protein activity and the activity level of autophagy phenomenon of control compounds (YOK-A-1104, YOK-G-1104, YTK-1005, YTK-1105-1), immunofluorescence staining was performed in the same manner as in Experimental Example 4 by using p62 and LC3 as markers. YOK-A-1104 and YOK-G-1104 are compounds having the following structures.
The compounds were treated at different concentrations, and intracellular puncta of p62 or LC3, that is, the degree to which autophagosome was formed and p62 was delivered was observed by a confocal microscopy.

p62 protein = molecular target: T1, p62 protein (Homo sapiens, UniProt Q13501); assay: Oligomerization activity of p62 protein in cultured cells by immunoblotting; format: cell-based; details: HEK293 cell lysate treated with test compounds at room temperature for 2 hours; immunoblot, FIG. 2
T1 construct: endogenous in cells; host or cells: HEK293 (cell lysate treated with compounds)
T1 sequence (Q13501 whole entry): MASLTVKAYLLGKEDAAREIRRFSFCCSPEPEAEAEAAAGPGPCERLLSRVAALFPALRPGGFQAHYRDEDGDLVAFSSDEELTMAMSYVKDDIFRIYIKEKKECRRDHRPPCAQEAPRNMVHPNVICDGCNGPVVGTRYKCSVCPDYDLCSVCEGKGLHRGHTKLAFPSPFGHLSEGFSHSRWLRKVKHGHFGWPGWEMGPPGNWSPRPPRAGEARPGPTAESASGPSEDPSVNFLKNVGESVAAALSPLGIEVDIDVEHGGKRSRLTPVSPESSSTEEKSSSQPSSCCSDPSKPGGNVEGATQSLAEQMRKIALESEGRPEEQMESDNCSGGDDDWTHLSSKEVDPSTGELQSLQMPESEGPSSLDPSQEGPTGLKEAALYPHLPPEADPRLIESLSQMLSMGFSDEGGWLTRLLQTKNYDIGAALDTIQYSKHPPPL
Text: In order to evaluate the p62 protein oligomerization activity efficacy by the compounds (Examples 1-19), HEK293 cell line, which is human embryonic kidney-derived cell, was collected. As representative compounds among the present compounds, YOK-1104, YOK-2204, YOK-3304, YOK-1204, YOK-4404, YOK-1107, YOK-1109, YOK-2207, YOK-2209, YT-4-1, YT-4-2, YT-6-1, YT-6-2, YT-6-7, YT-6-8, YT-9-1, YT-9-2 were selected. In order to measure intracellular p62 protein activation and oligomerization according to the treatment with these selected representative compounds, the respective cells were dispensed into a pi dish. The cells were collected after further culturing for 24 hours so that the cells were completely attached to the surface of the plate. 100 ul of lysis buffer (20 mM Tris, pH 7.4), 150 mM NaCl, 1% Triton X-100, 2 mM NaF, 2 mM EDTA, 2 mM beta-glycerophosphate, 5 mM sodium orthovanadate, 1 mM PMSF, leupeptin, aprotinin) were injected into each sample and the cells were lysed. Based on the measured total protein concentration, each sample was treated with test compounds at room temperature for 2 hours, and then a sample buffer was added and allowed to react at 95° C. for 10 minutes. 25 ul was taken from the samples after the reaction, and dispensed into each well of acrylamide gel, and then immunoblotting was performed.

[1] = 5 μM, treated for 1, 3, 6, 12, 24, 48 hours, FIG. 4
[2] = treated for 24 hours (concentration not given), FIG. 4

Compound | autophagy activity (level of LC3) (LC3; [1]) | p62 activation/oligomerization, delivery to autophagosome and autophagy activity (p62 and LC3 puncta, co-existence) (p62 and LC3) | p62 protein oligomerization activity (p62 monomer, oligomers and high-molecular aggregates) (p62 protein) | p62 activation/oligomerization, delivery to autophagosome and autophagy activity (p62 and LC3 puncta), control compounds (p62 and LC3) | also measured
OCCNC[C@@H](O)COc1ccc(OCc2ccccc2)c(OCc2ccccc2)c1 [YOK-1106] | increasing the autophagy activity | delivering them to autophagosome and simultaneously increasing autophagy activity | – | – | –
CC(C)NC[C@@H](O)COc1ccc(OCc2ccccc2)c(OCCc2ccccc2)c1 [YOK-1204, (R)-1-(4-(benzyloxy)-3-phenethoxyphenoxy)-3-(isopropylamino)propan-2-ol] | gradually increased; also recorded: increasing the autophagy activity | delivering them to autophagosome and simultaneously increasing autophagy activity | increasing the p62 protein oligomerization activity | – | –
CC(C)NC[C@@H](O)COc1ccc(OCCc2ccccc2)c(OCCc2ccccc2)c1 [YOK-2204, (R)-1-(3,4-diphenethoxyphenoxy)-3-(isopropylamino)propan-2-ol] | gradually increased; also recorded: increasing the autophagy activity | delivering them to autophagosome and simultaneously increasing autophagy activity | increasing the p62 protein oligomerization activity | – | –
CC(C)NC[C@@H](O)COc1ccc(OCCCc2ccccc2)c(OCCCc2ccccc2)c1 [YOK-3304, (R)-1-(3,4-bis(3-phenylpropoxy)phenoxy)-3-(isopropylamino)propan-2-ol] | gradually increased | delivering them to autophagosome and simultaneously increasing autophagy activity | increasing the p62 protein oligomerization activity | – | –
CC(C)NC[C@@H](O)COc1ccc(OCCCCc2ccccc2)c(OCCCCc2ccccc2)c1 [YOK-4404, (R)-1-(3,4-bis(4-phenylbutoxy)phenoxy)-3-(isopropylamino)propan-2-ol] | increasing the autophagy activity | delivering them to autophagosome and simultaneously increasing autophagy activity | increasing the p62 protein oligomerization activity | – | autophagy activity (level of LC3) (LC3; 1, 2, 5, 10 and 20 μM, 24 hours, FIG. 3): increasing the autophagy activity
CCOC(=O)C(C)NC[C@@H](O)COc1ccc(OCc2ccccc2)c(OCc2ccccc2)c1 (stereo partly drawn) [YOK-A-1104, Ethyl (R)-(3-(3,4-bis(benzyloxy)phenoxy)-2-hydroxypropyl)alanineate, reference compound] | – | – | – | delivering them to autophagosome and simultaneously increasing autophagy activity | –
COC(=O)CNC[C@@H](O)COc1ccc(OCc2ccccc2)c(OCc2ccccc2)c1 [YOK-G-1104, Methyl (R)-(3-(3,4-bis(benzyloxy)phenoxy)-2-hydroxypropyl)glycineate, reference compound] | – | – | – | delivering them to autophagosome and simultaneously increasing autophagy activity | –
OCCNC[C@@H](O)COc1cccc(OCc2ccc(F)cc2)c1 [YT-6-8, (R)-1-(3-((4-fluorobenzyl)oxy)phenoxy)-3-((2-hydroxyethyl)amino)propan-2-ol] | – | – | increasing the p62 protein oligomerization activity | – | autophagy activity (level of LC3) (LC3; [2]): gradually increased
N=C(N)NCCNC[C@@H](O)COc1ccc(OCc2ccc(Cl)cc2)c(OCc2ccc(Cl)cc2)c1 [YT-9-1] | – | – | increasing the p62 protein oligomerization activity | – | autophagy activity (level of LC3) (LC3; [2]): gradually increased
N=C(N)NCCNC[C@@H](O)COc1ccc(OCc2ccc(F)cc2)c(OCc2ccc(F)cc2)c1 [YT-9-2] | – | – | increasing the p62 protein oligomerization activity | – | autophagy activity (level of LC3) (LC3; [2]): gradually increased
OCCNCc1ccc(OCc2ccccc2)c(O)c1 [YTK-1005, reference compound] | – | – | – | delivering them to autophagosome and simultaneously increasing autophagy activity | –
OCCCCc1ccc(OCc2ccccc2)c(OCc2ccccc2)c1 [YTK-1105-1, 4-(3,4-bis(benzyloxy)phenyl)butan-1-ol, reference compound] | – | – | – | delivering them to autophagosome and simultaneously increasing autophagy activity | autophagy activity (level of LC3), control compounds (LC3; different concentrations and different times, FIG. 5): do not increase autophagy activity
